Laboratory results published in patent US6620834B1, “Medicinal compositions for treating colorectal cancer” (Hisamitsu Pharmaceutical Co., Inc., priority 1999, dated 2003).

Test system: Yoshida's sarcoma
Experiment: liver metastasis inhibitory effect in Yoshida's sarcoma rat model bearing a colorectal cancer
Assay type: in vivo
Details: Donryu rats, Yoshida's sarcoma injected to sigmoid subserous; intra-colon administration for 5 days, autopsy day 6; versus control group
Experimental: The solution was prepared in which pravastatin and aspirin were mixed in the mixing ratio below, and the pharmacological evaluation was carried out in the liver metastasis model of rat colorectal cancer.
The liver metastasis inhibitory effect was evaluated in the following procedure by use of the mix solution prepared in the example 1.
Donryu strain rats (8 weeks old) were used. Under a sodium pentobarbital anesthesia a catheter was inserted from the ileocecum into the colon, and the plug was put out from the back part and fixed. At the same time Yoshida's sarcoma (1.5×10^6cells/30 μl/rat) was injected to the sigmoid subserous.
The mix solution prepared in the example 1 was administered intra-colon or orally for 5 days from the next day after the surgery, and at day 6 a pathologic autopsy was made.
When the test on day 6 was finished, rats were killed by bleeding for a pathologic autopsy. The liver was isolated from each individual, fixed by a neutral buffered formalin solution, and a tissue section was then prepared to obtain histopathological findings. The metastasis inhibitory ratio was calculated comparing with the engraftment ratio of the cancer cells in the control group.

CC(=O)Oc1ccccc1C(=O)O [aspirin, Aspirin]
liver metastasis inhibitory effect: hardly observed
